# Assays:
# [1] = target: T1, PAPD7 (Homo sapiens, UniProt Q5XG87); assay: Y3H ULTImate YChemH competition with free compound; type: binding; conditions: PAPD7 varX1 fragment and full length; probe HBX129653 or HBX129654 1 μM; free compound 0-20 μM; FIG. 3-6
# T1 construct: full length proteins for PAPD5 and PAPD7 were synthesized and used for 1-by-1 validation; expressed in transfected cells; host or cells: diploid yeast (YHGX13 with the prey plasmid mated to YPT6AT with the DHFR hook)
# Procedure: (§1) The competition assays were performed on selective medium at 8 concentrations of the free compound (0, 0.25, 0.5, 1, 2, 5, 10 and 20 μM) and a consistent concentration for the tagged Y3H-compound (1 μM).
# [2] = target: T2, PAPD5 (Homo sapiens, UniProt Q8NDF8); assay: Y3H ULTImate YChemH competition with free compound; type: binding; conditions: PAPD5 var1 fragment and full length; probe HBX129653 or HBX129654 1 μM; free compound 0-20 μM; FIG. 3-6
# T2 construct: full length proteins for PAPD5 and PAPD7 were synthesized and used for 1-by-1 validation; expressed in transfected cells; host or cells: diploid yeast (YHGX13 with the prey plasmid mated to YPT6AT with the DHFR hook)
# Procedure: as §1
# [3] = tested on: PAPD5; assay: Y3H ULTImate YChemH 1-by-1 validation (prey fragments, full length proteins); type: binding, Human; conditions: PAPD5 variant 1 and variant 2 fragments; already at the lowest tested concentration (5 of 5, 10, 20 μM); FIG. 1
# Procedure: (§2) In this validation step each one identified fragment prey and one chemical probe (HBX129653, HBX129654) is tested in a 1-by-1 experiment. The plasmids from 3 selected preys from the screening library were extracted from the yeast cells, amplified in E. coli and re-transformed into YHGX13 yeast cells. For each interaction, DO1, 1/10, 1/100 and 1/1000 of the diploid yeast culture expressing both hook and prey constructs were spotted on a selective medium without tryptophan, leucine and histidine and supplemented with the chemical probe and FK506. Interactions were tested in duplicate. One plate was used per chemical compound and concentration (DMSO, 5, 10 and 20 μM of HBX129653, 5, 10 and 20 μM of HBX129654, 5 μM of HBX24786 Trimethoprim (TMP) and 5 μM of HBX129634 (TMP-PEG5-OH)). Plates were incubated at 30° C. for 3 days.
# (§3) The coding sequence of full-length PAPD5var1 (NM_001040284.2) and PAPD7varX1 (XM_005248234.2) were reconstituted from an N-terminal codon-optimized gene fragment (to remove high GC content) and commercially available clones of the C-terminal regions of the proteins and cloned in frame with the Gal4 Activation Domain (AD) into plasmid pP7 (AD-Prey), derived from the original pGADGH (Bartel et al., 1993 in Cellular interactions in development: A practical approach. ed. Hartley, D. A., Oxford University Press, Oxford, pp. 153-179). The constructs were checked by sequencing the entire inserts. For each prey, a mini-mating was carried out between YHGX13 (Y187 ade2-101::loxP-kanMX-loxP, mata) transformed with the prey plasmids and YPT6AT yeast cells (mata) transformed with the DHFR hook (Dihydrofolate reductase) to produce a diploid yeast culture. For each interaction, DO1, 1/10, 1/100 and 1/1000 of the diploid yeast culture expressing both hook and prey constructs were spotted on a selective medium without tryptophan, leucine and histidine and supplemented with the chemical probe and FK506. Interactions were tested in duplicate. One plate was used per chemical compound and concentration (DMSO, 5, 10 and 20 μM of HBX129653, 5, 10 and 20 μM of HBX129654, 5 μM of HBX24786 Trimethoprim (TMP) and 5 μM of HBX129634 (TMP-PEG5-OH)). Plates were incubated at 30° C. for 3 days.
# (§4) In a first validation step three fragments identified in the first screen were selected for the 1-by-1 validation assay (as described in the Materials and Method section) and tested at three different concentrations ([…]) (Table 11).
# (§5) In a second validation step, full length proteins for PAPD5 and PAPD7 were synthesized and used for 1-by-1 validation (as described in the Materials and Method section) with DHQ and THP (Table 12).
# [4] = target: T1, PAPD7; assay: as above; type: binding; conditions: PAPD7 full length; FIG. 2
# Procedure: as §2, §3, §4, §5
# [5] = tested on: PAPD7; assay: as above; type: binding, Human; conditions: PAPD7 fragment; already at the lowest tested concentration (5 of 5, 10, 20 μM); FIG. 1
# Procedure: as §2, §3, §4, §5
# [6] = target: T2, PAPD5; assay: as above; type: binding; conditions: PAPD5 var1 full length; FIG. 2
# Procedure: as §2, §3, §4, §5
# T1 sequence (Q5XG87 whole entry, the tested form may be a part): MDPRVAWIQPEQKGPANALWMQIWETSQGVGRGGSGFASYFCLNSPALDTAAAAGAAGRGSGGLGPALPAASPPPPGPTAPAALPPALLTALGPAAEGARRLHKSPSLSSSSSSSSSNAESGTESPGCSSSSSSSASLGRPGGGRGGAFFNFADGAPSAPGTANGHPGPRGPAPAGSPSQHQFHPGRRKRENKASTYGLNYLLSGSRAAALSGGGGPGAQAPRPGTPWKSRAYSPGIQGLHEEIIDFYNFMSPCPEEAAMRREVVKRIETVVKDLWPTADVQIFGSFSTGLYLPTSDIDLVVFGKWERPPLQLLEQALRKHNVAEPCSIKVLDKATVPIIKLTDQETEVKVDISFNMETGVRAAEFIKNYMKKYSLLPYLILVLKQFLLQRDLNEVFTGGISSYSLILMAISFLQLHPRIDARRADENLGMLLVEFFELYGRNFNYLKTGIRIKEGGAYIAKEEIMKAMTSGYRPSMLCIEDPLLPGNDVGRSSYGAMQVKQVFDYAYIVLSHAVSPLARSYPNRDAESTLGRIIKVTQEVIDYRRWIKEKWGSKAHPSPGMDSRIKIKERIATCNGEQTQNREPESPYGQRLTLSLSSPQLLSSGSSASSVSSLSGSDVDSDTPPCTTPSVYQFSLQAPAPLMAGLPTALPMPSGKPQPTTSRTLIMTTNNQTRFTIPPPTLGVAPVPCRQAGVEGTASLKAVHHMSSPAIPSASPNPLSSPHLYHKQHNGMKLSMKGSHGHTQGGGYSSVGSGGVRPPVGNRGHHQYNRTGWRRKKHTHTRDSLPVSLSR
# T2 sequence (Q8NDF8 1-698 isoform Q8NDF8-5): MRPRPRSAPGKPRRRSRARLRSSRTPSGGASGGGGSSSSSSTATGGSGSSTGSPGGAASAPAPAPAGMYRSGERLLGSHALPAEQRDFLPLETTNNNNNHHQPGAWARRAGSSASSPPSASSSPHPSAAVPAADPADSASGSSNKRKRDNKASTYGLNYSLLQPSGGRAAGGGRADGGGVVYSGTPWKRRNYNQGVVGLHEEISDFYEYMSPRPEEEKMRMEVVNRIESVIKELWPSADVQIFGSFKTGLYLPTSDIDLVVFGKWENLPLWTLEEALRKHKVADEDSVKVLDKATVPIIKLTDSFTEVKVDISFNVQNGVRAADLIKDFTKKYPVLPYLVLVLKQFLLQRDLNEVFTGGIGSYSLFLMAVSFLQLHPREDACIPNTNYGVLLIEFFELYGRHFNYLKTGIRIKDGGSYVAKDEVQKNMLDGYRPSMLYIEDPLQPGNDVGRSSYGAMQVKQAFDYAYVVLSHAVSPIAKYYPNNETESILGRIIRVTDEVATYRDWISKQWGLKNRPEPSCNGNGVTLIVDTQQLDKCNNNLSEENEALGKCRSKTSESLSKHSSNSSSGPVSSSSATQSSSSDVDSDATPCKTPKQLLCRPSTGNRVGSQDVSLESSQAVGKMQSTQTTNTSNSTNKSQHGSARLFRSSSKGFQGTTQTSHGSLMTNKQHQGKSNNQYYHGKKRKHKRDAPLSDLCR
competition of free compound with the chemical probe [1],competition of free compound with the chemical probe [2],Compound,1-by-1 validation of prey fragments as binders [3],"1-by-1 validation, interaction with full length protein [4]",1-by-1 validation of prey fragments as binders [5],"1-by-1 validation, interaction with full length protein [6]"
competition could be observed,competition could be observed,COCCCOc1cc2c(cc1Cl)-c1cc(=O)c(C(=O)O)cn1[C@H](C(C)C)C2 [MOL653],validated as specific binders,confirmed at the lowest tested concentration,validated as specific binders,confirmed at the lowest tested concentration
competition could be observed,competition could be observed,COc1cc(N2CCc3nc(-c4ncccn4)ncc3[C@H]2C)cc(F)c1F [MOL654],validated as specific binders,confirmed at the lowest tested concentration,validated as specific binders,confirmed at the lowest tested concentration
